From patent US20170121344A1 (Siga Technologies, Inc., priority 2009, published 2017)
Where two headings read alike, the source gives them in different places.

Test system: Dengue-2 (Strain New Guinea C)
Experiment: Viral yield assay against Dengue-2 in Vero cells
Format: cell-based, Dengue virus
Conditions: Dengue virus
How it was run: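 Vero cells were infected with dengue-2 at MOI 0.1, treated with compound (DMSO control), and kept at 37° C. They were harvested 48 hours post infection and yield was titered on Vero cells. EC50 came from the yield curve, and the other serotypes were run in a similar way.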

[1] = DENV2, viral yield assay, Vero cells, MOI 0.1, 48 hours post infection, read-out: Activity (EC50 in μM) DENV-2
[2] = Vero, 48 h, read-out: Activity (EC50 class) against Dengue-2 Virus in Vero cells
[3] = Vero cells, MOI 0.1, harvested 48 hours post infection, read-out: Activity (EC50 class) against Dengue-2 Virus in Vero cells

| Structure (SMILES) | EC50 [1] [µM] | EC50 [3] [µM] | further results |
| --- | --- | --- | --- |
| CCOc1cccc(NC(=O)c2sc3nc(-c4cccc(OC)c4)ccc3c2N)c1 [Compound 552, 3-amino-N-(3-ethoxyphenyl)-6-(3-methoxyphenyl)thieno[2,3-b]pyridine-2-carboxamide] | < 5 | – | – |
| Cc1cc(C)c2c(N)c(C(=O)NCCc3ccccc3)sc2n1 [Compound 257, 3-Amino-4,6-dimethyl-thieno[2,3-b]pyridine-2-carboxylic acid phenethyl-amide] | – | – | EC50 [2]: > 25 µM |
| NC(=O)c1sc2nc(-c3ccccc3)ccc2c1N [Compound 161, 3-Amino-6-phenyl-thieno[2,3-b]pyridine-2-carboxylic acid amide] | – | > 25 | – |
| COc1cccc(-c2ccc3c(N)c(C(=O)Nc4cc(OC)ccc4OC)sc3n2)c1 [Compound 496, 3-amino-N-(2,5-dimethoxyphenyl)-6-(3-methoxyphenyl)thieno[2,3-b]pyridine-2-carboxamide] | < 5 | – | – |
| CCOc1ccccc1NC(=O)c1sc2nc(-c3ccc(OC)c(OC)c3)ccc2c1N [Compound 509, 3-amino-6-(3,4-dimethoxyphenyl)-N-(2-ethoxyphenyl)thieno[2,3-b]pyridine-2-carboxamide] | < 5 | – | – |
| N#Cc1c(N)nc2sc(C(=O)Nc3nc(-c4ccccc4)cs3)c(N)c2c1-c1ccco1 [Compound 383, 3,6-diamino-5-cyano-4-(2-furyl)-N-(4-phenylthiazol-2-yl)thieno[2,3-b]pyridine-2-carboxamide] | < 5 | – | – |
| CCCc1ccc2c(N)c(C(=O)Nc3nc(C(F)(F)F)ccc3Cl)sc2n1 [Compound 73, 3-Amino-6-propyl-thieno[2,3-b]pyridine-2-carboxylic acid (3-chloro-6-trifluoromethyl-pyridin-2-yl)-amide] | – | 5 to 25 | – |
| CCOc1cccc(NC(=O)c2sc3nc4c(cc3c2N)CN(C)CC4)c1 [Compound 108, 3-Amino-6-methyl-5,6,7,8-tetrahydro-thieno[2,3-b][1,6]naphthyridine-2-carboxylic acid (3-ethoxy-phenyl)-amide] | – | 5 to 25 | – |
| CCN1CCc2nc3sc(C(=O)Nc4ccc(C(F)(F)F)cc4)c(N)c3cc2C1 [Compound 21, 3-Amino-6-ethyl-5,6,7,8-tetrahydro-thieno[2,3-b][1,6]naphthyridine-2-carboxylic acid (4-trifluoromethyl-phenyl)-amide] | – | < 5 | – |
| COCc1cc(C)nc2sc(C(=O)Nc3cccc4ccccc34)c(N)c12 [Compound 74, 3-Amino-4-methoxymethyl-6-methyl-thieno[2,3-b]pyridine-2-carboxylic acid naphthalen-1-ylamide] | – | 5 to 25 | – |
| CCc1nnc(NC(=O)c2sc3nc(-c4ccccc4)cc(C(F)(F)F)c3c2N)s1 [Compound 194, 3-Amino-6-phenyl-4-trifluoromethyl-thieno[2,3-b]pyridine-2-carboxylic acid (5-ethyl-[1,3,4]thiadiazol-2-yl)-amide] | – | > 25 | – |
| Nc1c(C(=O)Nc2nnc(-c3ccccc3)s2)sc2ncc(C(=O)O)cc12 [Compound 291, 3-amino-2-[(5-phenyl-1,3,4-thiadiazol-2-yl)carbamoyl]thieno[2,3-b]pyridine-5-carboxylic acid] | 5 to 25 | – | – |
| Nc1c(C(=O)Nc2ccccc2C(F)(F)F)sc2ncccc12 [Compound 424, 3-amino-N-[2-(trifluoromethyl)phenyl] thieno[2,3-b]pyridine-2-carboxamide] | 5 to 25 | – | – |
| CCOC(=O)c1c(NC(=O)c2sc3nc4c(cc3c2N)CN(C)CC4)sc2c1CCCC2 [Compound 57, 2-[(3-Amino-6-methyl-5,6,7,8-tetrahydro-thieno[2,3-b][1,6]naphthyridine-2-carbonyl)-amino]-4,5,6,7-tetrahydro-benzo[b]thiophene-3-carboxylic acid ethyl ester] | – | < 5 | – |
| CC(C)NC(=O)c1sc2nc3c(c(-c4cccs4)c2c1N)CN(C)CC3 [Compound 273, 3-Amino-6-methyl-4-thiophen-2-yl-5,6,7,8-tetrahydro-thieno[2,3-b][1,6]naphthyridine-2-carboxylic acid isopropylamide] | – | – | EC50 [2]: > 25 µM |
| Cc1ccc(-c2c3c(nc4sc(C(N)=O)c(N)c24)CCCC3)cc1 [Compound 227, 3-Amino-4-p-tolyl-5,6,7,8-tetrahydro-thieno[2,3-b]quinoline-2-carboxylic acid amide] | – | > 25 | – |
| CN1CCc2nc3sc(C(=O)NCCc4ccccc4)c(N)c3cc2C1 [Compound 267, 3-Amino-6-methyl-5,6,7,8-tetrahydro-thieno[2,3-b][1,6]naphthyridine-2-carboxylic acid phenethyl-amide] | – | > 25 | – |
| CN1CCc2nc3sc(C(=O)NC(C)(C)C)c(N)c3cc2C1 [Compound 107, 3-Amino-6-methyl-5,6,7,8-tetrahydro-thieno[2,3-b][1,6]naphthyridine-2-carboxylic acid tart-butylamide] | – | – | EC50 [2]: 5 to 25 µM |
| COc1ccc(-c2cc(-c3ccc(F)cc3)nc3sc(C(N)=O)c(N)c23)cc1OC [Compound 54, 3-Amino-4-(3,4-dimethoxy-phenyl)-6-(4-fluoro-phenyl)-thieno[2,3-b]pyridine-2-carboxylic acid amide] | – | < 5 | – |

| Structure (SMILES) | EC50 [1] [µM] | EC50 [3] [µM] | further results |
| --- | --- | --- | --- |
| Cc1ccc(NC(=S)NNC(=O)c2sc3nc(-c4cccs4)cc(C(F)(F)F)c3c2C)cc1 [Compound 410, 1-[[3-methyl-6-(2-thienyl)-4-(trifluoromethyl)thieno[2,3-b]pyridine-2-carbonyl]amino]-3-(p-tolyl)thiourea] | < 5 | – | – |
| Nc1c(C(=O)Nc2cc(Cl)ccc2Cl)sc2nc(-c3ccc(F)cc3)ccc12 [Compound 605, 3-amino-N-(2,5-dichlorophenyl)-6-(4-fluorophenyl)thieno[2,3-b]pyridine-2-carboxamide] | < 5 | – | – |
| COc1ccc(-c2ccc3c(N)c(C(=O)Nc4cc(C)ccc4C)sc3n2)cc1OC [Compound 524, 3-amino-6-(3,4-dimethoxyphenyl)-N-(2,5-dimethylphenyl)thieno[2,3-b]pyridine-2-carboxamide] | < 5 | – | – |
| Nc1c(C(=O)Nc2ccccc2F)sc2nc3c(cc12)CCCC3 [Compound 78, 3-Amino-5,6,7,8-tetrahydro-thieno[2,3-b]quinoline-2-carboxylic acid (2-fluoro-phenyl)-amide] | – | – | EC50 [2]: 5 to 25 µM |
| Cc1cc(C)c2c(C)c(C(=O)NCc3ccco3)sc2n1 [Compound 389, N-(2-furylmethyl)-3,4,6-trimethyl-thieno [2,3-b]pyridine-2-carboxamide] | 5 to 25 | – | – |
| Cc1ccc2c(N)c(C(=O)Nc3ccccc3C(F)(F)F)sc2n1 [Compound 418, 3-amino-6-methyl-N-[2-(trifluoromethyl)phenyl]thieno[2,3-b] pyridine-2-carboxamide] | – | – | EC50 (DENV2, Vero, 48 h, read-out: Activity (EC50 in μM) DENV-2): 5 to 25 µM |
| COCc1cc(C)nc2sc(C(=O)NC3CCCCC3)c(N)c12 [Compound 176, 3-Amino-4-methoxymethyl-6-methyl-thieno[2,3-b]pyridine-2-carboxylic acid cyclohexylamide] | – | – | EC50 [2]: > 25 µM |
| COCc1cc(C)c2c(N)c(C(N)=O)sc2n1 [Compound 68, 3-Amino-6-methoxymethyl-4-methyl-thieno[2,3-b]pyridine-2-carboxylic acid amide] | – | 5 to 25 | – |
| COc1cccc(-c2ccc3c(N)c(C(=O)Nc4ccc5c(c4)OCO5)sc3n2)c1 [Compound 511, 3-amino-N-(1,3-benzodioxol-5-yl)-6-(3-methoxyphenyl)thieno[2,3-b]pyridine-2-carboxamide] | < 5 | – | – |
| CN1CCc2nc3sc(C(=O)NCCc4c[nH]c5ccccc45)c(N)c3cc2C1 [Compound 32, 3-Amino-6-methyl-5,6,7,8-tetrahydro-thieno[2,3-b][1,6]naphthyridine-2-carboxylic acid [2-(1H-indol-3-yl)-ethyl]-amide] | – | < 5 | – |
| CCN(CC)C(=O)c1sc2nc(C)cc(C)c2c1N [Compound 167, 3-Amino-4,6-dimethyl-thieno[2,3-b]pyridine-2-carboxylic acid diethylamide] | – | > 25 | – |
| COc1cccc(-c2ccc3c(N)c(C(=O)Nc4cc(C(F)(F)F)ccc4Cl)sc3n2)c1 [Compound 560, 3-amino-N-[2-chloro-5-(trifluoromethyl)phenyl]-6-(3-methoxyphenyl)thieno [2,3-b]pyridine-2-carboxamide] | < 5 | – | – |
| COc1ccccc1NC(=O)c1sc2nc(N3CCOCC3)c3c(c2c1N)CC(C)(C)OC3 [Compound 247, 1-Amino-8,8-dimethyl-5-morpholin-4-yl-8,9-dihydro-6H-7-oxa-3-thia-4-aza-cyclopenta[a]naphthalene-2-carboxylic acid (2-methoxy-phenyl)-amide] | – | > 25 | – |
| COc1ccc(Cl)cc1NC(=O)c1sc2nc3c(cc2c1N)CN(Cc1ccccc1)CC3 [Compound 31, 3-Amino-6-benzyl-5,6,7,8-tetrahydro-thieno[2,3-b][1,6]naphthyridine-2-carboxylic acid (5-chloro-2-methoxy-phenyl)-amide] | – | < 5 | – |
| Nc1c(C(=O)Nc2ccc(C(=O)O)cc2)sc2nc(-c3ccc(Cl)cc3)ccc12 [Compound 334, 4-[[3-amino-6-(4-chlorophenyl)thieno [2,3-b]pyridine-2-carbonyl]amino] benzoic acid] | < 5 | – | – |
| COc1ccc(C(F)(F)F)cc1NC(=O)c1sc2nc(-c3cccs3)ccc2c1N [Compound 442, 3-amino-N-[2-methoxy-5-(trifluoromethyl)phenyl]-6-(2-thienyl) thieno[2,3-b]pyridine-2-carboxamide] | < 5 | – | – |
| COc1ccc(-c2cc(-c3cccs3)nc3sc(C(N)=O)c(N)c23)cc1 [Compound 238, 3-Amino-4-(4-methoxy-phenyl)-6-thiophen-2-yl-thieno[2,3-b]pyridine-2-carboxylic acid amide] | – | > 25 | – |
| Nc1c(C(=O)Nc2ccccc2C(F)(F)F)sc2nc3c(cc12)CCCCC3 [Compound 372, 3-amino-N-(2-(trifluoromethyl)phenyl)-6,7,8,9-tetrahydro-5H-cyclohepta[b]thieno [3,2-e]pyridine-2-carboxamide] | < 5 | – | – |
